Source: publication PMC8401933 (Molecules, 2021)

What was measured:
Assay in all cases: KINOMEscan binding
GRK2 = target: T1, GRK2 (Homo sapiens, UniProt P25098); details: read-out: Percent Control
T1 construct: purchased Eurofins DiscoverX KINOMEscan

TNIK = target: T2, TNIK (Homo sapiens, UniProt Q9UKE5); details: read-out: Percent Control
T2 construct: purchased Eurofins DiscoverX KINOMEscan

PRKCI = target: T3, PRKCI (Homo sapiens, UniProt P41743); details: read-out: Percent Control
T3 construct: purchased Eurofins DiscoverX KINOMEscan

CSNK2A1 = target: T4, CSNK2A1 (Homo sapiens, UniProt P68400)
T4 construct: purchased Eurofins DiscoverX KINOMEscan

CDKL1 = target: T5, CDKL1 (Homo sapiens, UniProt Q00532); details: read-out: Percent Control
T5 construct: purchased Eurofins DiscoverX KINOMEscan

DMPK2 = target: T6, DMPK2 (Homo sapiens, UniProt Q6DT37); details: read-out: Percent Control
T6 construct: purchased Eurofins DiscoverX KINOMEscan

NIM1 = target: T7, NIM1 (Homo sapiens, UniProt Q8IY84); details: read-out: Percent Control
T7 construct: purchased Eurofins DiscoverX KINOMEscan

[1] = target: T8, RSK1(Kin.Dom.1-N-terminal) (Homo sapiens, UniProt Q15418); details: read-out: Percent Control
T8 construct: RSK1(Kin.Dom.1-N-terminal); purchased Eurofins DiscoverX KINOMEscan

PIP5K2B = target: T9, PIP5K2B (Homo sapiens, UniProt P78356); details: read-out: Percent Control
T9 construct: purchased Eurofins DiscoverX KINOMEscan

[2] = target: T10, ABL1(Q252H)-nonphosphorylated (Homo sapiens, UniProt P00519, Q252H); details: read-out: Percent Control
T10 construct: purchased Eurofins DiscoverX KINOMEscan

TNNI3K = target: T11, TNNI3K (Homo sapiens, UniProt Q59H18); details: read-out: Percent Control
T11 construct: purchased Eurofins DiscoverX KINOMEscan

SgK110 = target: T12, SgK110 (Homo sapiens, UniProt P0C264); details: read-out: Percent Control
T12 construct: purchased Eurofins DiscoverX KINOMEscan

ERBB4 = target: T13, ERBB4 (Homo sapiens, UniProt Q15303); details: read-out: Percent Control
T13 construct: purchased Eurofins DiscoverX KINOMEscan

TRPM6 = target: T14, TRPM6 (Homo sapiens, UniProt Q9BX84); details: read-out: Percent Control
T14 construct: purchased Eurofins DiscoverX KINOMEscan

ABL1-phosphorylated = target: T15, ABL1-phosphorylated (Homo sapiens, UniProt P00519); details: read-out: Percent Control
T15 construct: purchased Eurofins DiscoverX KINOMEscan

[3] = target: T16, JAK2(JH1domain-catalytic) (Homo sapiens, UniProt O60674); details: read-out: Percent Control
T16 construct: JAK2(JH1domain-catalytic); purchased Eurofins DiscoverX KINOMEscan

ERK4 = target: T17, ERK4 (Homo sapiens, UniProt P31152); details: read-out: Percent Control
T17 construct: purchased Eurofins DiscoverX KINOMEscan

TGFBR2 = target: T18, TGFBR2 (Homo sapiens, UniProt P37173); details: read-out: Percent Control
T18 construct: purchased Eurofins DiscoverX KINOMEscan

MAPKAPK5 = target: T19, MAPKAPK5 (Homo sapiens, UniProt Q8IW41); details: read-out: Percent Control
T19 construct: purchased Eurofins DiscoverX KINOMEscan

[4] = target: T20, ABL1(T315I)-nonphosphorylated (Homo sapiens, UniProt P00519, T315I); details: read-out: Percent Control
T20 construct: purchased Eurofins DiscoverX KINOMEscan

FLT3(ITD,F691L) = test system: FLT3(ITD,F691L); design: species or system human; details: 10 μM
[5] = target: T21, RSK3(Kin.Dom.2-C-terminal) (Homo sapiens, UniProt Q15349); details: read-out: Percent Control
T21 construct: RSK3(Kin.Dom.2-C-terminal); purchased Eurofins DiscoverX KINOMEscan

MYLK4 = target: T22, MYLK4 (Homo sapiens, UniProt Q86YV6); details: read-out: Percent Control
T22 construct: purchased Eurofins DiscoverX KINOMEscan

PAK3 = target: T23, PAK3 (Homo sapiens, UniProt O75914); details: read-out: Percent Control
T23 construct: purchased Eurofins DiscoverX KINOMEscan

CAMK2G = target: T24, CAMK2G (Homo sapiens, UniProt Q13555); details: read-out: Percent Control
T24 construct: purchased Eurofins DiscoverX KINOMEscan

CAMK2D = target: T25, CAMK2D (Homo sapiens, UniProt Q13557); details: read-out: Percent Control
T25 construct: purchased Eurofins DiscoverX KINOMEscan

AKT3 = target: T26, AKT3 (Homo sapiens, UniProt Q9Y243); details: read-out: Percent Control
T26 construct: purchased Eurofins DiscoverX KINOMEscan

MARK4 = target: T27, MARK4 (Homo sapiens, UniProt Q96L34); details: read-out: Percent Control
T27 construct: purchased Eurofins DiscoverX KINOMEscan

GRK7 = target: T28, GRK7 (Homo sapiens, UniProt Q8WTQ7); details: read-out: Percent Control
T28 construct: purchased Eurofins DiscoverX KINOMEscan

RIPK1 = target: T29, RIPK1 (Homo sapiens, UniProt Q13546); details: read-out: Percent Control
T29 construct: purchased Eurofins DiscoverX KINOMEscan

PAK1 = target: T30, PAK1 (Homo sapiens, UniProt Q13153); details: read-out: Percent Control
T30 construct: purchased Eurofins DiscoverX KINOMEscan

BIKE = target: T31, BIKE (Homo sapiens, UniProt Q9NSY1); details: read-out: Percent Control
T31 construct: purchased Eurofins DiscoverX KINOMEscan

DYRK2 = target: T32, DYRK2 (Homo sapiens, UniProt Q92630); details: read-out: Percent Control
T32 construct: purchased Eurofins DiscoverX KINOMEscan

SYK = target: T33, SYK (Homo sapiens, UniProt P43405); details: read-out: Percent Control
T33 construct: purchased Eurofins DiscoverX KINOMEscan

PAK2 = target: T34, PAK2 (Homo sapiens, UniProt Q13177); details: read-out: Percent Control
T34 construct: purchased Eurofins DiscoverX KINOMEscan

ABL2 = target: T35, ABL2 (Homo sapiens, UniProt P42684); details: read-out: Percent Control
T35 construct: purchased Eurofins DiscoverX KINOMEscan

EPHB1 = target: T36, EPHB1 (Homo sapiens, UniProt P54762); details: read-out: Percent Control
T36 construct: purchased Eurofins DiscoverX KINOMEscan

[6] = target: T37, ABL1(H396P)-nonphosphorylated (Homo sapiens, UniProt P00519, H396P); details: read-out: Percent Control
T37 construct: purchased Eurofins DiscoverX KINOMEscan

[7] = target: T38, ABL1(F317I)-nonphosphorylated (Homo sapiens, UniProt P00519, F317I); details: read-out: Percent Control
T38 construct: purchased Eurofins DiscoverX KINOMEscan

RIOK3 = target: T39, RIOK3 (Homo sapiens, UniProt O14730); details: read-out: Percent Control
T39 construct: purchased Eurofins DiscoverX KINOMEscan

JNK1 = target: T40, JNK1 (Homo sapiens, UniProt P45983); details: read-out: Percent Control
T40 construct: purchased Eurofins DiscoverX KINOMEscan

NEK6 = target: T41, NEK6 (Homo sapiens, UniProt Q9HC98); details: read-out: Percent Control
T41 construct: purchased Eurofins DiscoverX KINOMEscan
T41 sequence (Q9HC98 whole entry): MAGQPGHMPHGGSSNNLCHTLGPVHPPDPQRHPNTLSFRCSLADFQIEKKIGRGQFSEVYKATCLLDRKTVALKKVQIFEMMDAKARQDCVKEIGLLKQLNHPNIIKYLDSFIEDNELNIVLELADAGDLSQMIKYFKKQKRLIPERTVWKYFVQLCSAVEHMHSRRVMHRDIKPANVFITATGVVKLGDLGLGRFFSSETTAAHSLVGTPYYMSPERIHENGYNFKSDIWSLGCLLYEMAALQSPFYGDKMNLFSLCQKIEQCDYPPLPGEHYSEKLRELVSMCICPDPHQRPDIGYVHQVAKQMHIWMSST

T4 sequence (P68400 whole entry): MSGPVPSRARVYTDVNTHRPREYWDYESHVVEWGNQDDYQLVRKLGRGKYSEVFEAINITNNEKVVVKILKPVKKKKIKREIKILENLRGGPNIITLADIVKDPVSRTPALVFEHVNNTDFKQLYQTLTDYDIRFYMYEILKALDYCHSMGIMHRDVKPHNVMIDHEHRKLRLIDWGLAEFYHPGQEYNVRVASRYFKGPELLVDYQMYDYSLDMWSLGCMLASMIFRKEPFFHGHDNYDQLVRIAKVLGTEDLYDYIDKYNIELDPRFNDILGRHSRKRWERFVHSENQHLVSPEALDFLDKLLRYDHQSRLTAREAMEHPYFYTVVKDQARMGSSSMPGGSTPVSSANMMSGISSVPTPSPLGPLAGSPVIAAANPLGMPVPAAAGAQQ
T18 sequence (P37173 23-567): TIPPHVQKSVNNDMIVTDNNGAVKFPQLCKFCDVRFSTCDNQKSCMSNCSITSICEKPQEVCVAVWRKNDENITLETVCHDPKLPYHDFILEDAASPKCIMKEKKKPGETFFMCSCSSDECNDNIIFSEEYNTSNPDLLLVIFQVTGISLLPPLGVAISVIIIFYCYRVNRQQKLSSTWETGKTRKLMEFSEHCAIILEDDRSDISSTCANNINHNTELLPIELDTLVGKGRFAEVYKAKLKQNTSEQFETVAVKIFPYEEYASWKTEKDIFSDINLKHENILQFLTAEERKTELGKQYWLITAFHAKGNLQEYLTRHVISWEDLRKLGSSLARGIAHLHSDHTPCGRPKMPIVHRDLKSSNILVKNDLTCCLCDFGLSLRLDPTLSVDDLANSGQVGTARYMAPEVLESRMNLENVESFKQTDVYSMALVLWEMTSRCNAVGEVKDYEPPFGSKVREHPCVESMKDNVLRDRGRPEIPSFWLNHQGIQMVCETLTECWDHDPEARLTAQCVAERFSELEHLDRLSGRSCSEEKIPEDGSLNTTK
T16 sequence (O60674 840-1132 limits assumed): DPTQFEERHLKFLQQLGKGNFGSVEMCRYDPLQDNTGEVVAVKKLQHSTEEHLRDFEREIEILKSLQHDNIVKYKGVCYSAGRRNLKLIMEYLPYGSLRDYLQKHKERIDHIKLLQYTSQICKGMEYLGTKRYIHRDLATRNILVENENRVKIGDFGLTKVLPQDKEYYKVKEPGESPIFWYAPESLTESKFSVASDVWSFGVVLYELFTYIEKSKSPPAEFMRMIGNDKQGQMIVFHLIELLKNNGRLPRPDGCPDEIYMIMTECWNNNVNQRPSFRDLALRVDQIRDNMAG
T39 sequence (O14730 whole entry): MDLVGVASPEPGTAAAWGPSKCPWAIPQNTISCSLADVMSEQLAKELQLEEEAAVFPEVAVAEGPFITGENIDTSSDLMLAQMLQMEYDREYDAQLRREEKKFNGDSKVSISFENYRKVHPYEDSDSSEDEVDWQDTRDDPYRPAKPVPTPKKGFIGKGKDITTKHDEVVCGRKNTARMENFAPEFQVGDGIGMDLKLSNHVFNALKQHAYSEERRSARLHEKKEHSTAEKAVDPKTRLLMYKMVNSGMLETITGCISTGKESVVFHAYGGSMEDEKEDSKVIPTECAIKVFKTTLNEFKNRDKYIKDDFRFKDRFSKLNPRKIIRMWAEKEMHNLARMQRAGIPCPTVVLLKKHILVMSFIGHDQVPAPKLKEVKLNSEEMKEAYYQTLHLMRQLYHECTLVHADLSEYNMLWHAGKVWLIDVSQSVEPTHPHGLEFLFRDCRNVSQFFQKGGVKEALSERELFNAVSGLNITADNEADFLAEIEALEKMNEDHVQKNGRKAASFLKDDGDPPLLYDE
T32 sequence (Q92630 whole entry): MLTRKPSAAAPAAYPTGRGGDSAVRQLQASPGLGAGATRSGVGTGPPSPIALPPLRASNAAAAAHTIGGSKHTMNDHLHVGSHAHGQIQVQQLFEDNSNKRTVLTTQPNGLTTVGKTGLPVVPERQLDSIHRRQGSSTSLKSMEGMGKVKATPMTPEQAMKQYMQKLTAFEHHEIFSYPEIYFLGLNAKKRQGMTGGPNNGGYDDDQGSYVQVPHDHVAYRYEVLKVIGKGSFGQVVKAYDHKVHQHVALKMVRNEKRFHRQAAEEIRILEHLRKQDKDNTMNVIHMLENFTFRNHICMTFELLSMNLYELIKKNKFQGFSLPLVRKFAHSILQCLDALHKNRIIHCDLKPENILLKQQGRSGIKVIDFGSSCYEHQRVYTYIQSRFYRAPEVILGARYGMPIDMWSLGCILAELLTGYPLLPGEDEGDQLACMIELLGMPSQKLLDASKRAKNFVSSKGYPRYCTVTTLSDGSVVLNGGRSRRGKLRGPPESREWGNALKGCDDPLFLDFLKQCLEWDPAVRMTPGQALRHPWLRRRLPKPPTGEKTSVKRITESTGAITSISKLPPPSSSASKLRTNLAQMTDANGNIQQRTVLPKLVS
T21 sequence (Q15349 389-733 limits assumed): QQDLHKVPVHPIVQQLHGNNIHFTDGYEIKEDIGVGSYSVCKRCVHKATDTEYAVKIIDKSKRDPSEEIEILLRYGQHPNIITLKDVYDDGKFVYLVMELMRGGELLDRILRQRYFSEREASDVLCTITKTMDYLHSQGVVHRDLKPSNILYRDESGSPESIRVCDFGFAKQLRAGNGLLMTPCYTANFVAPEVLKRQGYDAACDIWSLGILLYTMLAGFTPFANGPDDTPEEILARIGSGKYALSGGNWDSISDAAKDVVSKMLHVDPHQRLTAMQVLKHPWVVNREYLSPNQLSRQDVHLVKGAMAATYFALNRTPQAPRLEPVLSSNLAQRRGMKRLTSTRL
T19 sequence (Q8IW41 whole entry): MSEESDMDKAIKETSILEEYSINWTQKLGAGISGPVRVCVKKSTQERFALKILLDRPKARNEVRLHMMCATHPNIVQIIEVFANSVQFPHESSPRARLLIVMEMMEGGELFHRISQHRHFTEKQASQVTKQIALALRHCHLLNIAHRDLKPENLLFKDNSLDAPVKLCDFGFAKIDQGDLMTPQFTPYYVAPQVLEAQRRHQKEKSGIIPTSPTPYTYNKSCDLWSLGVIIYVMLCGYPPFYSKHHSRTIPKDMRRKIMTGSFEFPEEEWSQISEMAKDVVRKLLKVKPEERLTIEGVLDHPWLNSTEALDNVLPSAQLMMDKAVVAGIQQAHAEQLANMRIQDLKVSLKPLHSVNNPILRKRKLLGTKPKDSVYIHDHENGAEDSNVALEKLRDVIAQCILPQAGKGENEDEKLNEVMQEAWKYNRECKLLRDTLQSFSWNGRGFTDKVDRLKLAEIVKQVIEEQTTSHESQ
T26 sequence (Q9Y243 whole entry): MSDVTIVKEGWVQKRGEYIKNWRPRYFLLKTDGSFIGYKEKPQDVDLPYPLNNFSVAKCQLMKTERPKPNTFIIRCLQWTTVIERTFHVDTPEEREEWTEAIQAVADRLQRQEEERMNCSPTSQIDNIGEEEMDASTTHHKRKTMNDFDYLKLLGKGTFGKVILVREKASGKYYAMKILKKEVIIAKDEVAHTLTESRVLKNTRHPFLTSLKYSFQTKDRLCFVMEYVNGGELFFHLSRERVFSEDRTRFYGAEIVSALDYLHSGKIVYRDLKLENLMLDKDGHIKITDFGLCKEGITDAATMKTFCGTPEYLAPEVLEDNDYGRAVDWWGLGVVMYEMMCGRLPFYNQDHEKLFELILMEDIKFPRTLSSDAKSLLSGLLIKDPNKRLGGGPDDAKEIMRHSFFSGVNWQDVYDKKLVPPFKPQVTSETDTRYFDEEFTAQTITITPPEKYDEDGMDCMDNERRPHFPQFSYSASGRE
T9 sequence (P78356 whole entry): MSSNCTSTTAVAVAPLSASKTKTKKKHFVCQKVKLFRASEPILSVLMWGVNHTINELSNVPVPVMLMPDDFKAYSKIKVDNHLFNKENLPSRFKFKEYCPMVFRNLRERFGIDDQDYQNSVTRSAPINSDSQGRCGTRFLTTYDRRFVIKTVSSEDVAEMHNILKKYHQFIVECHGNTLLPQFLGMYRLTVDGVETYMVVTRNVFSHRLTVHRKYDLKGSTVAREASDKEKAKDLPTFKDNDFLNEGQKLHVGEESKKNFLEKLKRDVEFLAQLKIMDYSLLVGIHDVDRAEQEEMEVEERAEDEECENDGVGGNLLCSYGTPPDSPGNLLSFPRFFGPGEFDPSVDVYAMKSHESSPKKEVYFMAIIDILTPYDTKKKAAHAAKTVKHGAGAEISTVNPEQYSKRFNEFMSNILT
T40 sequence (P45983 whole entry): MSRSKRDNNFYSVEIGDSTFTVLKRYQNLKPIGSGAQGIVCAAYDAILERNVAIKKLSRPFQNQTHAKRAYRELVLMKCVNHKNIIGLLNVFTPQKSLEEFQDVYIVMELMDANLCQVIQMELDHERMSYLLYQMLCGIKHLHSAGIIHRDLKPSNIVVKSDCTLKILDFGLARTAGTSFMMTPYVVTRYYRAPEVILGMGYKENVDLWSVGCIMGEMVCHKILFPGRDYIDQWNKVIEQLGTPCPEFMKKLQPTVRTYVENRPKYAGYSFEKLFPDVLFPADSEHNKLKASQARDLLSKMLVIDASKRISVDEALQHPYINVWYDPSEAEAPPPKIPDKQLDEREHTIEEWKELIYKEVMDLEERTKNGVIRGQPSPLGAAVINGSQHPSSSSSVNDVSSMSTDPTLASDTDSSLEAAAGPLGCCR

CC(C)NC(=O)COc1cccc(-c2nc(Nc3ccc4[nH]ncc4c3)c3ccccc3n2)c1 [KD025, 2-(3-(4-((1H-indazol-5-yl)amino)quinazolin-2-yl)phenoxy)-N-isopropylacetamide]
remaining binding at 10 µM (GRK2): 89% | remaining binding at 10 µM (TNIK): 100% | remaining binding at 10 µM (PRKCI): 76% | CK2α and CK2α’ inhibited less than ROCK2 (POC) (CSNK2A1; 10 μM): 10 fold | remaining binding at 10 µM (CSNK2A1; CSNK2A1, read-out: Percent Control): 0.5% | remaining binding at 10 µM (CDKL1): 56% | remaining binding at 10 µM (DMPK2): 3.9% | remaining binding at 10 µM (NIM1): 100% | remaining binding at 10 µM [1]: 7.8% | remaining binding at 10 µM (PIP5K2B): 9.7% | remaining binding at 10 µM [2]: 85% | remaining binding at 10 µM (TNNI3K): 92% | remaining binding at 10 µM (SgK110): 100% | remaining binding at 10 µM (ERBB4): 57% | remaining binding at 10 µM (TRPM6): 93% | remaining binding at 10 µM (ABL1-phosphorylated): 73% | remaining binding at 10 µM [3]: 51% | remaining binding at 10 µM (ERK4): 100% | remaining binding at 10 µM (TGFBR2): 100% | remaining binding at 10 µM (MAPKAPK5): 89% | remaining binding at 10 µM [4]: 93% | Percent Control (FLT3(ITD,F691L)): 52% | remaining binding at 10 µM [5]: 89% | remaining binding at 10 µM (MYLK4): 17% | remaining binding at 10 µM (PAK3): 77% | remaining binding at 10 µM (CAMK2G): 99% | remaining binding at 10 µM (CAMK2D): 71% | remaining binding at 10 µM (AKT3): 100% | remaining binding at 10 µM (MARK4): 66% | remaining binding at 10 µM (GRK7): 80% | remaining binding at 10 µM (RIPK1): 86% | remaining binding at 10 µM (PAK1): 56% | remaining binding at 10 µM (BIKE): 3.9% | remaining binding at 10 µM (DYRK2): 86% | remaining binding at 10 µM (SYK): 100% | remaining binding at 10 µM (PAK2): 79% | remaining binding at 10 µM (ABL2): 92% | remaining binding at 10 µM (EPHB1): 98% | remaining binding at 10 µM [6]: 90% | remaining binding at 10 µM [7]: 98% | remaining binding at 10 µM (RIOK3): 6.7% | remaining binding at 10 µM (JNK1): 70% | remaining binding at 10 µM (NEK6): 80%
